From patent EP4741406A1, “NEUROKININ-1 RECEPTOR ANTAGONIST COMPOUND” (Creadev (Nanjing) Pharmaceutical Technology Co., Ltd., priority 2023, dated 2025)
≈ marks a conversion by molar mass, not a printed value.

Key:
[1] = Plasma stability assay (conversion to parent drug); type: in vitro ADME; settings: human plasma, 37 °C, 1 µM
Method: Human plasma (Vendor: AoNeng Biotech).
A certain amount of the compound of the examples was weighed and dissolved in DMSO to prepare a 10 mM stock solution. An aliquot of the 10 mM stock solution was diluted with DMSO to obtain a 1600 µM intermediate solution. An aliquot of the 1600 µM intermediate solution was further diluted with 45% methanol to prepare a 16 µM working solution.
• 1) Plasma was pre-incubated in a water bath at 37 °C for 5 min. • 2) 4 µL of the 16 µM working solution of the compound of the examples was added to 60 µL of plasma to give a final compound concentration of 1 µM, and the mixture was gently mixed. • 3) Samples were incubated at each time point (0, 15, 30, 60, and 120 min). After incubation, 192 µL of acetonitrile containing an internal standard was added, followed by shaking on a shaker for 1 min. The mixture was centrifuged at 3700 rpm at 4 °C for 20 min, and the supernatant was collected for LC-MS analysis.

[2] = Liver S9 stability assay (conversion to parent drug); type: in vitro ADME; settings: human liver S9 with NADPH, 37 °C
Method: Human pooled liver S9 (Vendor: Xenotech), thawed in a 37°C water bath before use.
Weigh a certain amount of the example compound, dissolve in DMSO to prepare a 10 mM stock solution, then dilute an appropriate volume of the stock solution with DMSO to obtain a 200 µM working solution.
Take 1.5 µL of the 200 µM working solution of the example compound and add it to 238.5 µL of liver S9 working solution, pre-incubate in a 37°C water bath for 5 min; then add 60 µL of NADPH working solution to initiate the reaction and mix by gentle inversion. At the 0 min time point, transfer the above mixture into quenching solution and mix; at the 5, 15, 30, and 60 min time points, transfer the mixture into quenching solution and DMSO and mix. […] Collect the supernatant for LC-MS analysis.

Thermodynamic solubility = type: physicochemical; settings: aqueous buffer, thermodynamic from solid; 100 mM phosphate buffer pH 7.4, room temperature, shaking 16 hours
Method: 100 mM phosphate buffer solution: Dissolve 7.94 g of K2HPO4.3H2O and 2.07 g of KH2PO4 in 500 mL ultrapure water. Adjust the solution pH to 7.4 with 1 N NaOH, then filter and set aside.
Accurately weigh an appropriate amount of the example compound and add it in small portions to 100 mM phosphate buffer solution to prepare a final concentration of 20 mg/mL. After shaking at room temperature for 16 hours, let stand for 30 min, then filter the supernatant and dilute with DMSO. Add the diluted sample solution to quenching solution, mix thoroughly, and analyze by LC/MS.

[3] = In vivo pharmacokinetic study in rats, intravenous; settings: rat, 2 mg/kg
Method: Rats were used as test subjects. […] This study evaluated the pharmacokinetic behavior of the compounds in rats and assessed their pharmacokinetic characteristics.
Intravenous push injection was performed over approximately 5 minutes, with a dose of 2 mg/kg, a concentration of 0.4 mg/mL, and a volume of 5 mL/kg.
(§1) Sodium heparin was used as an anticoagulant. Immediately after collection, whole blood proteins were precipitated using methanol:acetonitrile (1:1), and the supernatant was transferred for LC/MS/MS analysis.

[4] = Pharmacokinetic study in crab-eating monkeys, intravenous infusion; settings: monkey, 2 mg/kg
Method: Crab-eating monkeys were used as test subjects.
Intravenous infusion was performed over 30 minutes, with a dose of 2 mg/kg, a concentration of 0.4 mg/mL, and a volume of 5 mL/kg.
as §1

[5] = system: red blood cell suspension; test: In vitro human hemolysis assay; type: cell-based; settings: concentrations as high as 200 µM, 37 °C, 45 minutes
Method: Collect the whole blood and store it in a 250 mL Erlenmeyer flask. Shake at 500 rpm for 10 minutes to remove fibrinogen, producing defibrinated blood. Wash with physiological saline (blood volume: saline volume = 1:4). Centrifuge the blood/saline mixture at 2500 rpm for 15 minutes at 4°C, discard the supernatant. Wash the sedimented red blood cells several times with physiological saline (blood volume: saline volume = 1:4) and centrifuge at 2500 rpm for 15 minutes until the supernatant is no longer red. Prepare a red blood cell suspension using physiological saline at a ratio of 1:49 (cell volume: saline volume) and store at 4°C until use.
Observe for aggregation every 15 minutes. • 3) Centrifuge the resulting solution at 4000 rpm for 15 minutes at 4°C. Transfer 100 µL of the supernatant and measure absorbance at 540 nm to calculate the hemolysis rate (%).

[6] = time point 0 min, parent drug = Lorapiprant

Row | Structure (SMILES) | Parent drug% [2, 6] | Parent drug% ([2]; time point 5 min) | Parent drug% ([2]; time point 15 min) | Parent drug% ([2]; time point 30 min) | Parent drug% ([2]; time point 60 min) | solubility at 16 h (Thermodynamic solubility) | AUC(0-t) ([3]; whole blood) | Cmax ([3]; whole blood) | MRT inf ([3]; whole blood) | Tmax ([3]; whole blood) | half-life ([3]; whole blood) | further results
1 | C[C@@H](OC[C@@]1(c2ccccc2)CC[C@]2(CCC(=O)N2)CN1C(=O)OCSSCCS(=O)(=O)O)c1cc(C(F)(F)F)cc(C(F)(F)F)c1 [Example 42] | 34.8% | 40.6% | 48.5% | 51.9% | 44.0% | 13.2 mg/mL (≈ 18.1 mM) |  |  |  |  |  | Parent drug% [1, 6]: 6.09%; Parent drug% ([1]; time point 15 min): 52.71%; Parent drug% ([1]; time point 30 min): 60.94%; Parent drug% ([1]; time point 60 min): 53.88%; Parent drug% ([1]; time point 120 min): 66.59%; AUC(0-t) ([3]; in vivo): 9.42 ng·h/mL; Cmax ([3]; in vivo): 61.2 ng/mL; MRT inf ([3]; in vivo): 5.45 min; Tmax ([3]; in vivo): 5 min; half-life ([3]; in vivo): 4.66 min; AUC(0-t) ([4]; in vivo): 528 ng·h/mL; Cmax ([4]; in vivo): 1620 ng/mL; Tmax ([4]; in vivo): 30 min; half-life ([4]; in vivo): 6.06 min
2 | C[C@@H](OC[C@@]1(c2ccccc2)CC[C@]2(CCC(=O)N2)CN1C(=O)OCOP(=O)(O)O)c1cc(C(F)(F)F)cc(C(F)(F)F)c1 [Compound of formula (I), reference compound] |  |  |  |  |  |  | 82.6 ng·h/mL | 328 ng/mL | 21 min | 5 min | 26.3 min | AUC(0-t) ([4]; whole blood): 688 ng·h/mL; Cmax ([4]; whole blood): 2110 ng/mL; Tmax ([4]; whole blood): 30 min; half-life ([4]; whole blood): 9.06 min
3 | C[C@@H](OC[C@@]1(c2ccccc2)CC[C@]2(CCC(=O)N2)CN1C(=O)OCSSCCC(=O)O)c1cc(C(F)(F)F)cc(C(F)(F)F)c1 [Example 33] | 13.2% | 22.5% | 41.9% | 50.0% | 57.3% |  |  |  |  |  |  | 
4 | C[C@@H](OC[C@@]1(c2ccccc2)CC[C@]2(CCC(=O)N2)CN1C(=O)OCSSCCCOS(=O)(=O)O)c1cc(C(F)(F)F)cc(C(F)(F)F)c1 [Example 39] |  |  |  |  |  | 6.54 mg/mL (≈ 8.6 mM) | 19.9 ng·h/mL | 116 ng/mL | 7.56 min | 5 min | 8.34 min | hemolytic activity [5]: no hemolytic activity
5 | C[C@@H](OC[C@@]1(c2ccccc2)CC[C@]2(CCC(=O)N2)CN1C(=O)OCSSCCOCCOCCOCCC(=O)O)c1cc(C(F)(F)F)cc(C(F)(F)F)c1 [Example 47] |  |  |  |  |  | 10.9 mg/mL (≈ 13.2 mM) |  |  |  |  |  | 
